Experimental findings from publication PMC10525927, “First Generation of Antioxidant Precursors for Bioisosteric Se-NSAIDs: Design, Synthesis, and In Vitro and In Vivo Anticancer Evaluation” (Antioxidants, 2023) are described below.

Assay [1] deals with PC-3 prostate cancer cells. The assay can be described thus: MTT cell viability assay, PC-3. Type of assay: cell-based. As to conditions: 48 h, mean ± SD. The method, then:
(§1) The cell lines were purchased from the American Type Culture Collection (ATCC). The cancer cell lines DU-145, PC-3, T-47D, MDA-MB-231, H1299, and A549, and the non-tumorigenic cells (184B5 and BEAS-2B), were maintained in RPMI 1640 medium (Gibco, Alcobendas, Madrid, Spain) supplemented with 10% fetal bovine serum (FBS; Gibco) and 1% antibiotics (10.00 units/mL penicillin and 10.00 mg/mL streptomycin; Gibco). Colon cancer cells HT-29 and HCT-116 were cultured in McCoy’s 5A medium (Gibco) supplemented with 10% fetal bovine serum (FBS; Gibco) and 1% antibiotics (10.00 units/mL penicillin and 10.00 mg/mL streptomycin; Gibco). Cells were maintained in tissue culture flasks at 37 °C and 5% CO2. The culture medium was replaced every three days.
(§2) The antiproliferative activity and selectivity in vitro of the Se-NSAID derivatives were determined by the (3-(4,5-dimethylthiazol-2-yl)-2,5-diphenyltetrazolium bromide) (MTT) assay. Compounds were dissolved in DMSO at a concentration of 0.01 M and serial dilutions were prepared. The Se-NSAID derivatives were tested at seven concentrations ranging between 1 and 100 µM in the colon (HT-29 and HCT-116), prostate (DU-145 and PC-3), breast (MDA-MB-231 and T-47D), and lung (H1299 and A549) cancer cell lines. The non-tumorigenic breast (184B5) and lung (BEAS-2B) cell lines were also tested to assess the selectivity of the compounds following the same procedure. A total of 1 × 10^4 cells were seeded per well in 96-well plates and incubated at 5% CO2 and 37 °C for 24 h. Then, cells were treated with either DMSO or increasing concentrations of the corresponding Se-NSAID derivatives for 48 h. A volume of 20 µL of MTT (5 mg/mL) was added to each well 2.5 h before the termination point. At the end of the experiment, the medium was removed, and the resultant formazan crystals formed by mitochondrial reduction of MTT were dissolved in 50 µL of DMSO. Absorbance was measured at 550 nm. IC50, GI50, TGI, and LC50 values were calculated using OriginPro version 8.5.1. software by nonlinear curve fitting. Selectivity indexes (SI) were calculated as the ratio of the IC50 values determined for the nonmalignant and the tumoral cells in the breast (IC50 (184B5)/IC50 (MDA-MB-231) and IC50 (184B5)/IC50 (T-47D)) and lung (IC50 (BEAS-2B)/IC50 (H1299) and IC50 (BEAS-2B)/IC50 (A549)) cell lines. Data were obtained from at least three independent experiments performed in triplicates.

A short description of assay [2]: DPPH radical scavenging assay. The method, then: Briefly, the compounds were dissolved at a concentration of 1 mg/mL in absolute methanol, and a dilution was prepared. […] Then, 100 µL of the DPPH solution was added to 100 µL of the compounds’ solution to a final concentration of 0.03 mg/mL or 0.06 mg/mL, and the decolorization of the purple radical to the yellowish reduced form was followed by recording the absorbance at 517 nm. Ascorbic acid (Asc) and Trolox were used as positive controls. Both of them, Asc and Trolox, were purchased from Sigma-Aldrich. Determinations were recorded at eight different time intervals from 0 to 120 min on a BioTeck PowerWave XS spectrophotometer, and the data were collected using KCJunior version 1.41. software. All the measurements were carried out in triplicate. Results are expressed as the percentage of the radical scavenged, calculated using the following formula: % DPPH radical scavenging = [(Acontrol − Asample)/Acontrol] × 100, wherein Acontrol refers to the absorbance of the negative control and Asample refers to the absorbance of the tested compounds.
A general note: Loss of DPPH colour is used to gauge radical scavenging.

The test system of assay [3] is HCT-116 colon cancer cells. Briefly: MTT cell viability assay, HCT-116. Type of assay: cell-based. As to conditions: mean ± SD. The method, then: as §1, §2
On the technique in general: Formazan colour is commonly taken as a measure of viable cells.

As a reminder, the IC50 is the point on the concentration scale where inhibition reaches its midpoint. A lower IC50 goes with inhibition by little substance. Usually GI50 stands for the concentration that inhibits growth by half.

SMILES strings stand for the structures.

As to `CC(C)Cc1ccc(C(C)C(=O)[Se][Se]C(=O)C(C)c2ccc(CC(C)C)cc2)cc1` (stereo not drawn) [Compound 5, 2-(4-Isobutylphenyl)propanoic diselenoperoxyanhydride], the half-maximal inhibitory concentration (IC50) in assay [1] was found to be 7.4 ± 0.5 µM; in assay [3] (Homo sapiens, HCT-116, 48 h) it was 9 ± 3 µM. Moreover, the GI50 amounted to 4.7 ± 0.2 µM in assay [1] (Table S1) and 4.6 ± 1.5 µM in assay [3] (Homo sapiens, HCT-116, 48 h, Table S1). Further, the “LD50 PC-3” value in assay [1] (Table S1) was determined as 8.9 ± 1.9 µM. Moreover, the “TGI PC-3” value in assay [1] (in vitro TGI concentration, Table S1) was determined as 6.1 ± 0.5 µM. The “DPPH radical scavenging activity” value was “comparable to those of the positive controls” in assay [2] (highest concentration tested (0.06 mg/mL), by the end of the experiment (120 min)) and 20% in assay [2] (lowest concentration tested (0.03 mg/mL)). Also, the “TGI HCT-116” value in assay [3] (in vitro TGI concentration, 48 h, Table S1) amounted to 10.3 ± 3.8 µM.
